pIC50: −log10 of the molar value. “Also recorded” adds a separate entry of the source. Blank lines part the entries; values can stand above or below the compound they belong to.
What was measured:
[1] = test system: SKNF2 cell lines; test: Comparative examples: BG, BG derivatives, TAT derivative and co-administration versus Composition 300 in mice implanted with SKNF2 cell lines; format: in vivo; conditions: 3 mg/kg subcutaneously daily for 15 days (FIGS. 12a, 12b)
[2] = test system: SKNF2 cell lines; test: as above; format: in vivo; conditions: for Percentage of Tumor Growth Suppression / Reduction of tumor viability: Dosage 3 mg/kg
Description: FIGS. 12a and 12b shown the effect of the control and treatment with BG, BG derivatives, thyrointegrin antagonists such as TAT derivatives, and combinations (co-administration) thereof, versus Composition 300 (BG-P-TAT) on tumor cell necrosis of mice implanted with SKNF2 cell lines.
Further, even a combination treatment of two triazole tetrac derivatives in combination delivered subcutaneously daily for three (3) weeks at 3 mg/kg only achieves a reduction of 40-50% for tumor growth and tumor viability. Similar results are obtained with treatments using benzyl guanidine and benzyl guanidine derivatives.
For example, the graph of FIG. 12b includes the effect of a triazole tetrac derivative (referred to as TAT) on tumor weight when compared with a control group (phosphate-buffered saline “PBS”). The specific derivative tested was beta cyclodextrin triazole tetrac.
Again, beta cyclodextrin triazole tetrac was the tetrac derivative used.
Composition 300 achieves approximately 80% reduction in tumor. Further, the viability of residual tumor was reduced by 80%.

[3] = test system: SKNF1 neuroblastoma tumors; test: Cy5 fluorescence imaging of subcutaneously implanted SKNF1 tumor in athymic female mice; format: in vivo; conditions: Cy5 labeled; 1-24 hours post-administration; compared with triazole tetrac derivative alone or benzyl guanidine derivative alone
Description: Athymic female mice were implanted twice each with 10^6 cells/implant. The SKNF1 cell line was used with subcutaneous xenografts.
Group 1 consisted of three mice and were treated with PEG-TAT-dye (Cy5). Group 2 consisted of three mice and were treated with PEG-BG-dye (Cy5). Group 3 consisted of three mice and were treated with TAT-PEG-BG-dye (Cy5) wherein the TAT and BG were covalently linked with a PEG linker as compound 300. The treatment groups are shown below:
Fluorescence imaging (Cy5) was conducted 1 hour, 2 hours, 4 hours, 6 hours, and 24 hours post-administration. Imaging results are shown in FIGS. 13a and 13b, in which the tumor location is circled in yellow and the Cy5 dye appears as red.

[4] = test system: neuroblastoma SKNF2 cells; test: Composition 300 dose response on subcutaneously implanted SKNF2 neuroblastoma tumor in female nude mice; format: in vivo; conditions: for tumor shrinkage (tumor weight) / tumor cell viability / tumor cell necrosis rate: 15 days; for tumor cell viability: control 70-75%
Description: The efficacy of Composition 300 (BG-P-TAT) was tested using neuroblastoma SKNF2 cells implanted into nude female mice.
Fifteen (15) female nude mice were implanted with twice with 10^6 cells/implant. The SKNF2 cell line was used with subcutaneous xenografts.
Eight (8) days following implantation, the mice were divided into four groups receiving the following treatment for 15 days:
Following fifteen (15) days of treatment, tumors were collected in order to evaluate histopathology, and the following results were collected: […]

[5] = target: purified integrin αvβ3 receptor (Homo sapiens, UniProt P05106+P06756); test: Binding affinity towards purified integrin αvβ3 receptor
purified integrin αvβ3 receptor, sequence (P06756 31-889 limits assumed): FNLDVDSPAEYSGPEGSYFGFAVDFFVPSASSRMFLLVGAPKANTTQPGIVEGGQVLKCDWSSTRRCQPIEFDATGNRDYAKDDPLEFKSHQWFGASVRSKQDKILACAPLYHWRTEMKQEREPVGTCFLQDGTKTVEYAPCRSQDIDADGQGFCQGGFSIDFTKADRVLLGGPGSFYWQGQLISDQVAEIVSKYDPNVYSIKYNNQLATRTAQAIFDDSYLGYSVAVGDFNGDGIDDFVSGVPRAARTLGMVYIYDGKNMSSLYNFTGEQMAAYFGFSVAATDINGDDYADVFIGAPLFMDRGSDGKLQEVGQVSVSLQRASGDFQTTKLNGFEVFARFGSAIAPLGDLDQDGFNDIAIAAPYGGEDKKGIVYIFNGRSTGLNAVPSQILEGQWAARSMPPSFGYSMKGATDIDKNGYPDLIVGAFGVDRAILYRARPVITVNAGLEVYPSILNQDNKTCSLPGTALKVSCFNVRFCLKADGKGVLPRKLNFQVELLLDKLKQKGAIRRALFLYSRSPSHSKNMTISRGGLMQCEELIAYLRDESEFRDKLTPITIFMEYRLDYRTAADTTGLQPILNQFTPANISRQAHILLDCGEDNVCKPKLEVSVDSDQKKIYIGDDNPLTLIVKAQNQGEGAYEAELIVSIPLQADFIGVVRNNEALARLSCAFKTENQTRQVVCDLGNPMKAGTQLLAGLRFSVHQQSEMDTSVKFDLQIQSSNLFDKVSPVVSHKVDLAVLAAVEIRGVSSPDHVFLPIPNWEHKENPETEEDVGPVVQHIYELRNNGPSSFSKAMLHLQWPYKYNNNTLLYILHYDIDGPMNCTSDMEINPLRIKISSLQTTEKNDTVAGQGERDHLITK
purified integrin αvβ3 receptor, sequence (P06756 891-1048 partner limits assumed): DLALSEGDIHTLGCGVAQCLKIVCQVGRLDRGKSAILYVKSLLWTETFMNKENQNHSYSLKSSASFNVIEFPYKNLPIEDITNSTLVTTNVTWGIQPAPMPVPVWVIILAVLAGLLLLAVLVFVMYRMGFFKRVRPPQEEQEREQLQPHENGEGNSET
purified integrin αvβ3 receptor, sequence (P05106 27-788): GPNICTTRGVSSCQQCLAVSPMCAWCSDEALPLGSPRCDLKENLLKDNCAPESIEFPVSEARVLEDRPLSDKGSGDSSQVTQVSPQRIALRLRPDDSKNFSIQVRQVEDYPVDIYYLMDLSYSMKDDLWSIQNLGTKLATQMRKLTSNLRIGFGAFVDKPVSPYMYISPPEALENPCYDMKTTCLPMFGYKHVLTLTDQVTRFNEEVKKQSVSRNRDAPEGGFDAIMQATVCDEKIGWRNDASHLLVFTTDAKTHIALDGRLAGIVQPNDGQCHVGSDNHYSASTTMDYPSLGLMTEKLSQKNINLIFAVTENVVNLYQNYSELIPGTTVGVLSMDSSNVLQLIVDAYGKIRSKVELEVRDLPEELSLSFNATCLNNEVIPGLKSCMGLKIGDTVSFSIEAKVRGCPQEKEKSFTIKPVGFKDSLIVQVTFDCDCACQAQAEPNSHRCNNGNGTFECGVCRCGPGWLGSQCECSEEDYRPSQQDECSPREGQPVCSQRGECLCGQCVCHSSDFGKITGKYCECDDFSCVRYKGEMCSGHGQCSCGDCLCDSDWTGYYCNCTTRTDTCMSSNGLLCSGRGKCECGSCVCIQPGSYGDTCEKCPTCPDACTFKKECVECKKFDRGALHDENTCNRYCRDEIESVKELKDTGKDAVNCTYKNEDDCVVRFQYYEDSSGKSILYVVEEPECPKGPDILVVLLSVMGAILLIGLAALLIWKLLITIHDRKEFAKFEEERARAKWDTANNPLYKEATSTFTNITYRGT

[6] = test system: neuroblastoma SKNF1 cells; test: Compositions 7a, 7b and 15 on subcutaneously implanted SKNF1 neuroblastoma tumor in female nude mice; format: in vivo
Description: The efficacy of Compositions 7a (dI-BG-P-TAT), 7b (dM-BG-P-TAT), and 15 (BG-P-PAT) were tested using neuroblastoma SKNF1 cells implanted into nude female mice similar to the examples discussed above for Composition 300 (BG-P-TAT).
Further, to compare the histopathological changes in tumors of untreated and treated groups, tumors were harvested, fixed, and stained with hematoxylin and eosin (H&E). Necrosis at low magnification of tumors from animals treated with compounds 7a, 7b, and 15 versus control is seen clearly as shown in Figure. […] On the other hand, tumors from the untreated group had mostly viable tumor cells. […]

Compound: beta cyclodextrin triazole tetrac [TAT]
tumor weight shrinkage / reduction versus control (PBS) [1]: 40-50%
Percentage of Tumor Growth Suppression [2]: 40-50%
Reduction of tumor viability [2]: 40-50%

Compound: N=C(N)NCc1cccc([131I])c1 [MIBG, meta-iodobenzylguanidine]
Percentage of Tumor Growth Suppression [2]: 40-50%
Reduction of tumor viability [2]: 40-50%

Compound: N=C(N)NCc1ccccc1 [BG, benzyl guanidine]
Percentage of Tumor Growth Suppression [2]: 40-50%
Reduction of tumor viability [2]: 40-50%

Compound: N=C(N)NCc1ccc(OCCOCCOCCOCCOCCOCCOCCn2cc(COc3c(I)cc(Oc4c(I)cc(CC(=O)O)cc4I)cc3I)nn2)cc1 [Composition 300, 2-(4-(4-((1-(20-(4-(guanidinomethyl)phenoxy)-3,6,9,12,15,18-hexaoxaicosyl)-1H-1,2,3-triazol-4-yl)methoxy)-3,5-diiodophenoxy)-3,5-diiodophenyl)acetic acid]
reduction of viability of residual tumor ([2]; 3 mg/kg): 80%
tumor weight shrinkage / reduction versus control (PBS) ([2]; 3 mg/kg subcutaneously daily for 15 days (FIGS. 12a, 12b), listed as BG-P-TAT): 80%
Percentage of Tumor Growth Suppression [2]: 80-90%
Reduction of tumor viability [2]: 80-90%
retention time within the tumor (Cy5 fluorescence) [3]: marked improvement
uptake into the SKNF1 neuroblastoma tumors (Cy5 fluorescence) [3]: marked improvement; also recorded: highest intensity accumulation
tumor shrinkage (tumor weight) ([4]; 1 mg/kg daily): 60%
tumor cell viability ([4]; 1 mg/kg daily): 50%
tumor cell necrosis rate ([4]; 1 mg/kg): approximately 50%
tumor shrinkage (tumor weight) ([4]; 3 mg/kg daily): 80%
tumor cell viability ([4]; 3 mg/kg daily): 20
tumor cell necrosis rate ([4]; 3 mg/kg): approximately 80%
tumor shrinkage (tumor weight) ([4]; 10 mg/kg daily): 100%
tumor cell viability ([4]; 10 mg/kg daily): 0.00%
tumor volume after 15 days of treatment ([4]; 10 mg/kg group, start approximately 825 mm^3, control rose to 1050 mm^3): ~100 mm^3
tumor cell necrosis rate ([4]; 10 mg/kg): ~100%
effect on animal body weight ([4]; 1, 3 and 10 mg/kg subcutaneously daily for 15 days, versus control animals): no effect; also recorded: no significant changes
cancer cell necrosis ([4]; at the 3 and 10 mg/kg doses (FIG. 11 legend)): 80-100%
abnormal animal head movements (circling) seen in control mice ([4]; treated mice, 1-10 mg/kg): disappearance
tumor vasculature ([4]; treatment groups 1-10 mg/kg versus control): clearly diminished
pIC50 [5]: 7.99

pIC50 [5]: 9.52
fold increase in binding affinity relative to BG-P-TAT ([5]; αvβ3 binding): ~30 fold
Compound: N=C(N)NCc1ccc(OCCOCCOCCOCCOCCOCCOCCOCCN2CCN(CCCOc3c(I)cc(Oc4c(I)cc(CC(=O)O)cc4I)cc3I)CC2)cc1 [Composition 15]
tumor volume over twenty days ([6]; 3 mg/kg subcutaneously, 20 days, control rose from 175 mm^3 to 1000 mm^3): no substantial increase
areas of necrosis, fibrosis and cell debris (H&E staining) ([6]; 3 mg/kg, 20 days of treatment): approximately 98%
decrease in tumor weight versus control ([6]; 3 mg/kg, 20 days of treatment): 90%
